Reference: patent US20220370416A1, “COMPOUNDS AND METHODS FOR TARGETED DEGRADATION OF KRAS” (Arvinas Operations, Inc., priority 2020, published 2022)

What was measured:
[1] = target: T1, HiBit-KRAS^G12C (Homo sapiens, UniProt P01116, G12C); assay: HiBit degradation assay in MiaPaCa-2 HiBit-KRas^G12C cells; format: cell-based; settings: 24 hours
Procedure: Reagents. SW1573 (CRL-2170) and MiaPaCa-2 (CRL-1420) cells were purchased from ATCC. Both cell lines are […] for the G12C mutation in KRAS. SW1573 cells were cultured in DMEM+F12+Glutamax (+Sodium Bicarbonate, +sodium pyruvate, Thermofisher scientific, #10565) supplemented with 10% FBS (Thermofisher scientific, #2060357) and 1% Antibiotic-Antimycotic (Thermofisher scientific, #15240096). MiaPaCa-2 cells were cultured in DMEM+Glutamax media (Thermofisher scientific, #10566) supplemented with 10% FBS (Thermofisher scientific, #2060357) and 1% Antibiotic-Antimycotic (Thermofisher scientific, #15240096). For degradation assays, 384 well plates were purchased from Corning (Corning® CellBIND® 384-well Flat Clear Bottom Black Polystyrene Microplates, Low Flange, #3770). Gambogic acid was purchased from Selleckchem (#S2448). Alamar blue was purchased from Thermofisher scientific (A50101) and used according to manufacturer instructions. The Nano-Glo® HiBit Lytic Detection System and Nano-Glo® HiBit Blotting System were purchased from Promega (#N3050 and #N2410) and used according to manufacturer instructions.
To create the MiaPaCa-2 HiBit-KRAS^G12C cell line, CRISPR-Cas9 was used to insert the HiBit tag onto the N-terminus of one or more of the four endogenous KRAS^G12C alleles. After knock-in of the tag, individual clones were isolated by single cell dilution and screened for HiBit insertion by PCR. Clones containing the HiBit tag were sequenced and one was identified that contained the desired HiBit-KRAS^G12C sequence at one allele while the remaining three KRAS^G12C alleles were unaffected. This line was used for all subsequent studies.
Either SW1573 HiBit-KRas^G12C or MiaPaCa-2 HiBit-KRas^G12C cells were plated at 9000 cells/well in a 384 well plate (Corning #3770). Exemplary heterobifunctional molecules and positive controls were diluted in the appropriate cell media and applied to the plated cells resulting in a final concentration titration of 10 μM to 20 nM in either 0.1% or 0.5% dimethyl sulfoxide (DMSO). Gambogic acid was used as a positive control for cytotoxicity and titrated from 10 μM to 78 nM. All assays were performed in triplicate. Cells were treated with compounds for 24 hours at 37° C. in an incubator containing 5% CO2. Following treatment, alamar blue was used to determine if any compounds led to a loss in cell viability after 24 hours. The 10× alamar blue reagent was added to a final concentration of 1× as recommended by the manufacturer and cells were returned to the incubator for 4 hours. Plates were then allowed to equilibrate to room temperature and fluorescence was measured using a Perkin-Elmer EnVision. After completion of the fluorescence read, the liquid from each well was removed and the cells were washed with PBS. The Nano-Glo® HiBiT detection reagent was prepared according to the manufacturer's instructions and added to each well after the PBS wash was removed. Following incubation at room temperature for 45 minutes, the luminescence was read using the ultra-sensitive luminescence aperture on the Envision instrument.
Fluorescence values from the alamar blue treatment were normalized to the DMSO only control for each compound titration. We hypothesized that compounds that led to a ≥50% loss in cell viability of the KRAS-independent SW1573 HiBit-KRas^G12C cells were likely generally cytotoxic and loss of HiBit-KRAS^G12C signal from these compounds may be due to lower cell number and not specific KRAS^G12C degradation. These points were therefore excluded from the data analysis for degradation. […]

[2] = target: T1, HiBit-KRAS^G12C; assay: HiBit degradation assay in SW1573 HiBit-KRas^G12C cells; format: cell-based; parameters: expressed in transfected cells; host or cells: SW1573 (clone E6), modified pcDNA3.1 vector, TK promoter; settings: 24 hours
Method in brief: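 SW1573 cells stably expressing N-terminally HiBit-tagged KRAS G12C, under the TK promoter, were treated 24 h at 37 °C with 10 μM to 20 nM compound in 0.1% or 0.5% DMSO. Residual HiBit luminescence normalised to DMSO and fitted with a 4-parameter model for DC50 and Dmax. Points with ≥50% viability loss (alamar blue) excluded.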

[3] = MIA PaCa-2, MiaPaCa-2 HiBit-KRas^G12C cells, 0.5% DMSO, maximum degradation, read-out: KRas^G12C-HiBiT (MiaPaCa; 0.5% DMSO) DMax
[4] = read-out: KRas^G12C-HiBiT (MiaPaCa; 0.5% DMSO) IC50, MiaPaCa-2 HiBit-KRas^G12C cells, 0.5% DMSO
[5] = SW1573, SW1573 HiBit-KRas^G12C, 0.5% DMSO, read-out: KRas^G12C-HiBiT (SW1573; 0.5% DMSO) Dmax**
[6] = read-out: KRas^G12C-HiBiT (SW1573; 0.5% DMSO) IC50***, SW1573 HiBit-KRas^G12C, 0.5% DMSO
[7] = SW1573 HiBit-KRas^G12C, 0.1% DMSO, read-out: KRas^G12C-HIBit (SW1573; 0.1% DMSO) DC50*
[8] = SW1573, read-out: KRas^G12C-HiBit (SW1573; 0.1% DMSO) Dmax**, SW1573 HiBit-KRas^G12C, 0.1% DMSO

T1 sequence (P01116 1-186 isoform P01116-2 G12C limits assumed): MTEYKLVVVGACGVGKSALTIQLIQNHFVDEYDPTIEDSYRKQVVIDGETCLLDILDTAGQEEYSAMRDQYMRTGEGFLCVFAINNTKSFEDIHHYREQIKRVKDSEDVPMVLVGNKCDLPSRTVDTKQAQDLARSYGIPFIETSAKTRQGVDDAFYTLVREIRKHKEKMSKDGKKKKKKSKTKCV

SMILES | Dmax [1, 3] [%] | DC50 [1, 4] [nM] | Dmax [2, 5] [%] | DC50 [2, 6] [nM] | DC50 [2, 7] [nM] | other results
C=CC(=O)N1CCN(c2nc(OCCN3CCC(COc4cc([C@@H](C(=O)N5C[C@H](O)C[C@H]5C(=O)N[C@@H](C)c5ccc(C#N)cc5)C(C)C)on4)CC3)nc3c(F)c(-c4cc(O)cc5ccccc45)c(Cl)cc23)C[C@@H]1CC#N [Compound 161, (2S,4R)-1-[(2S)-2-[3-({1-[2-({6-chloro-4-[(3S)-3-(cyanomethyl)-4-(prop-2-enoyl)piperazin-1-yl]-8-fluoro-7-(3-hydroxynaphthalen-1-yl)quinazolin-2-yl}oxy)ethyl]piperidin-4-yl}methoxy)-1,2-oxazol-5-yl]-3-methylbutanoyl]-N-[(1S)-1-(4-cyanophenyl)ethyl]-4-hydroxypyrrolidine-2-carboxamide] | 35 to 70 | 100 to 1000 | 35 to 70 | < 100 | – | –
C=CC(=O)N1CCN(c2nc(OCCN3CCC(COCC(=O)N[C@H](C(=O)N4C[C@H](O)C[C@H]4C(=O)N[C@@H](C)c4ccc(-c5scnc5C)cc4)C(C)(C)C)CC3)nc3c(F)c(-c4cc(O)cc5ccccc45)c(Cl)cc23)C[C@@H]1CC#N [Compound 17, (2S,4R)-1-[(2S)-2-[2-({1-[2-({6-chloro-4-[(3S)-3-(cyanomethyl)-4-(prop-2-enoyl)piperazin-1-yl]-8-fluoro-7-(3-hydroxynaphthalen-1-yl)quinazolin-2-yl}oxy)ethyl]piperidin-4-yl}methoxy)acetamido]-3,3-dimethylbutanoyl]-4-hydroxy-N-[(1S)-1-[4-(4-methyl-1,3-thiazol-5-yl)phenyl]ethyl]pyrrolidine-2-carboxamide] | – | – | – | – | 100 to 1000 | Dmax ([1]; MIA PaCa-2, MiaPaCa-2 HiBit-KRas^G12C cells, 0.1% DMSO, maximum degradation, read-out: KRas^G12C-HiBiT (MiaPaCa; 0.1% DMSO) DMax): > 70%; KRas^G12C-HiBiT (MiaPaCa; 0.5% DMSO) DMax ([1]; MiaPaCa-2 HiBit-KRas^G12C cells, 0.5% DMSO, maximum degradation): A (A ≥ 70); Dmax ([2]; SW1573, SW1573 HiBit-KRas^G12C, 0.1% DMSO, read-out: KRas^G12C-HiBit (SW1573; 0.1% DMSO) Dmax**): 35 to 70%; KRas^G12C-HiBiT (SW1573; 0.5% DMSO) Dmax** ([2]; SW1573 HiBit-KRas^G12C, 0.5% DMSO): A (A ≥ 70)
C=CC(=O)N1CCN(c2nc(O[C@H](C)CN3CCN(CCCOC4CN(CC(=O)N[C@H](C(=O)N5C[C@H](O)C[C@H]5C(=O)N[C@@H](C)c5ccc(-c6scnc6C)cc5)C(C)(C)C)C4)CC3)nc3c(F)c(-c4cc(O)cc5ccccc45)c(Cl)cc23)CC1 [Compound 57, (2S,4R)-1-[(2S)-2-{2-[3-(3-{4-[(2R)-2-{[6-chloro-8-fluoro-7-(3-hydroxynaphthalen-1-yl)-4-[4-(prop-2-enoyl)piperazin-1-yl]quinazolin-2-yl]oxy}propyl]piperazin-1-yl}propoxy)azetidin-1-yl]acetamido}-3,3-dimethylbutanoyl]-4-hydroxy-N-[(1S)-1-[4-(4-methyl-1,3-thiazol-5-yl)phenyl]ethyl]pyrrolidine-2-carboxamide] | – | – | – | – | 100 to 1000 | DC50 ([1]; read-out: KRas^G12C-HiBiT (MiaPaCa; 0.1% DMSO) IC50, MiaPaCa-2 HiBit-KRas^G12C cells, 0.1% DMSO): > 1000 nM; Dmax [2, 8]: < 35%
C=CC(=O)N1CCN(c2nc(OCCN3CCC(COCC(=O)N[C@H](C(=O)N4C[C@H](O)C[C@H]4C(=O)N[C@@H](C)c4ccc(-c5scnc5C)cc4)C(C)(C)C)CC3)nc3c(F)c(-c4nc(N)cc5ccccc45)c(Cl)cc23)C[C@@H]1CC#N [Compound 111] | 35 to 70 | 100 to 1000 | 35 to 70 | 100 to 1000 | – | –
C=CC(=O)N1CCN(c2nc(O[C@H](C)CN3CCC(COCC(=O)N[C@H](C(=O)N4C[C@H](O)C[C@H]4C(=O)N[C@@H](C)c4ccc(-c5scnc5C)cc4)C(C)(C)C)CC3)nc3c(F)c(-c4cc(O)cc5cccc(C)c45)c(Cl)cc23)CC1 [Compound 11, (2S,4R)-1-[(2S)-2-[2-({1-[(2R)-2-{[6-chloro-8-fluoro-7-(3-hydroxy-8-methylnaphthalen-1-yl)-4-[4-(prop-2-enoyl)piperazin-1-yl]quinazolin-2-yl]oxy}propyl]piperidin-4-yl}methoxy)acetamido]-3,3-dimethylbutanoyl]-4-hydroxy-N-[(1S)-1-[4-(4-methyl-1,3-thiazol-5-yl)phenyl]ethyl]pyrrolidine-2-carboxamide] | – | – | – | – | 100 to 1000 | Dmax ([1]; MIA PaCa-2, read-out: KRas^G12C-HiBiT (MiaPaCa; 0.1% DMSO) DMax, MiaPaCa-2 HiBit-KRas^G12C cells, 0.1% DMSO, maximum degradation): 35 to 70%; Dmax [2, 8]: 35 to 70%
C=CC(=O)N1CCN(c2nc(OCCN3CCC(COCC(=O)N[C@H](C(=O)N4C[C@@H](O)C[C@H]4C(=O)N[C@@H](C)c4ccc(-c5scnc5C)cc4)C(C)(C)C)CC3)nc3c(F)c(-c4cc(O)cc5ccccc45)c(Cl)cc23)C[C@@H]1CC#N (atropisomer, axis not shown) [Compound 162, (2S,4S)-1-[(2S)-2-[2-({1-[2-({6-chloro-4-[(3S)-3-(cyanomethyl)-4-(prop-2-enoyl)piperazin-1-yl]-8-fluoro-7-(3-hydroxynaphthalen-1-yl)quinazolin-2-yl}oxy)ethyl]piperidin-4-yl}methoxy)acetamido]-3,3-dimethylbutanoyl]-4-hydroxy-N-[(1S)-1-[4-(4-methyl-1,3-thiazol-5-yl)phenyl]ethyl]pyrrolidine-2-carboxamide] | 35 to 70 | – | < 35 | – | – | –
C=CC(=O)N1CCN(c2nc(OCCN3CCC(COc4cc([C@@H](C(=O)N5C[C@H](O)C[C@H]5C(=O)N[C@@H](C)c5ccc(-c6scnc6C)cc5)C(C)C)on4)CC3)nc3c(F)c(-c4cc(O)cc5ccccc45)c(Cl)cc23)C[C@@H]1CC#N (atropisomer, axis not shown) [Compound 154, (2S,4R)-1-[(2S)-2-[3-({1-[2-({6-chloro-4-[(3S)-3-(cyanomethyl)-4-(prop-2-enoyl)piperazin-1-yl]-8-fluoro-7-(3-hydroxynaphthalen-1-yl)quinazolin-2-yl}oxy)ethyl]piperidin-4-yl}methoxy)-1,2-oxazol-5-yl]-3-methylbutanoyl]-4-hydroxy-N-[(1S)-1-[4-(4-methyl-1,3-thiazol-5-yl)phenyl]ethyl]pyrrolidine-2-carboxamide] | < 35 | 100 to 1000 | – | > 1000 | – | –
